Reference: the supplement of paper PMC10307832

Columns and labels:
Experiment in all cases: relative viability (nuclei count vs DMSO), 5 days (fraction); higher = more cells survive
[1] = compound: CC1=C(CC(=O)O)c2cc(F)ccc2/C1=C\c1ccc([S+](C)[O-])cc1 [Sulindac] + COc1cccc2cc(-c3nc([C@H]4CC[C@H](C(=O)O)CC4)n4ncnc(N)c34)[nH]c12 [OSI-027] (partner 0.5 µM)
Outline: (§1)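 Values are medians from duplicate plates. Each reflects relative viability, defined as the nuclei count of treated wells over that of vehicle wells. Lung cancer cell lines in 1536-well plates were pin-tool dosed one day after seeding with one drug alone or with a fixed anchor-drug dose plus five library-drug doses (not always all listed) in √10 steps, then fixed, stained and imaged at 4× after 5 days.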

[2] = compound: CC1=C(CC(=O)O)c2cc(F)ccc2/C1=C\c1ccc([S+](C)[O-])cc1 [Sulindac] + Cc1nc(Nc2ncc(C(=O)Nc3c(C)cccc3Cl)s2)cc(N2CCN(CCO)CC2)n1 [Dasatinib] (partner 0.075 µM)
Outline: as §1

[3] = compound: CN[C@@H]1C[C@H]2O[C@@](C)([C@@H]1OC)n1c3ccccc3c3c4c(c5c6ccccc6n2c5c31)C(=O)NC4 [Staurosporine] + CC(=O)Nc1cccc(-n2c(=O)n(C3CC3)c(=O)c3c(Nc4ccc(I)cc4F)n(C)c(=O)c(C)c32)c1 [Trametinib] (partner 0.02 µM)
Outline: as §1

[4] = compound: CN[C@@H]1C[C@H]2O[C@@](C)([C@@H]1OC)n1c3ccccc3c3c4c(c5c6ccccc6n2c5c31)C(=O)NC4 [Staurosporine] + N=C(N)NC(=N)NCCc1ccccc1 [Phenformin] (partner 250 µM)
Outline: as §1

Cell Line | relative viability ([1]; first compound 0.08 µM) | relative viability ([1]; first compound 0.253 µM) | relative viability ([1]; first compound 0.8 µM) | relative viability ([1]; first compound 2.53 µM) | relative viability ([1]; first compound 8 µM) | relative viability ([2]; first compound 0.08 µM) | relative viability ([2]; first compound 0.253 µM) | relative viability ([2]; first compound 0.8 µM) | relative viability ([2]; first compound 2.53 µM) | relative viability ([2]; first compound 8 µM) | relative viability ([3]; first compound 0.005 µM) | relative viability ([3]; first compound 0.05 µM) | relative viability ([3]; first compound 0.1581 µM) | relative viability ([3]; first compound 0.5 µM) | relative viability ([4]; first compound 0.005 µM) | relative viability ([4]; first compound 0.05 µM) | relative viability ([4]; first compound 0.1581 µM) | relative viability ([4]; first compound 0.5 µM) | relative viability ([3]; first compound 0.01581 µM) | relative viability ([4]; first compound 0.01581 µM)
HCC-366 | 1.33 | 1.11 | 0.947 | 0.836 | 0.964 | 0.715 | 0.699 | 0.578 | 0.587 | 0.622 | 0.242 | 0.0839 | 0.0291 | 0.0289 | 0.708 | 0.519 | 0.283 | 0.0201 | – | –
NCI-H2405 | 0.664 | 0.711 | 0.736 | 0.602 | 0.685 | 0.22 | 0.234 | 0.331 | 0.218 | 0.228 | 0.355 | 0.148 | 0.0927 | 0.0684 | 0.326 | 0.117 | 0.0864 | 0.0856 | 0.161 | 0.162
SW 900 | – | 0.566 | – | 0.42 | 0.555 | – | 0.582 | – | 0.524 | 0.623 | 0.494 | 0.444 | 0.128 | 0.164 | 0.364 | 0.189 | 0.111 | 0.127 | 0.366 | 0.184
LXF-289 | 0.829 | 0.863 | 0.749 | 0.753 | 0.844 | 0.24 | 0.223 | 0.227 | 0.25 | 0.225 | 0.741 | 0.412 | 0.274 | 0.237 | 0.325 | 0.172 | 0.0511 | 0.0502 | 0.409 | 0.0737
NCI-H1793 | 0.218 | 0.359 | 0.236 | 0.243 | 0.258 | 0.431 | 0.38 | 0.369 | 0.408 | 0.398 | 0.472 | 0.359 | 0.168 | 0.169 | 0.453 | 0.357 | – | 0.129 | – | –
NCI-H1734 | 0.663 | 0.636 | – | 0.583 | 0.711 | 0.514 | 0.428 | – | 0.445 | 0.5 | 0.715 | 0.165 | 0.119 | 0.101 | 0.348 | 0.153 | 0.116 | 0.107 | 0.387 | 0.179
LU99A | 0.306 | 0.289 | 0.284 | 0.299 | 0.306 | 0.596 | 0.533 | 0.509 | 0.522 | 0.714 | 0.461 | 0.23 | 0.182 | 0.133 | 0.671 | 0.353 | 0.24 | 0.162 | 0.243 | 0.335
RERF-LC-KJ | 0.681 | 0.671 | 0.551 | 0.569 | 0.587 | 1.03 | 0.973 | 0.692 | 0.802 | 0.838 | 0.795 | – | 0.328 | 0.207 | 0.209 | 0.225 | 0.241 | 0.229 | 0.604 | 0.269
NCI-H2087 | 0.67 | 0.595 | – | 0.46 | 0.567 | 1.23 | 0.82 | – | 0.8 | 1.11 | 0.167 | 0.0865 | 0.0713 | 0.0829 | 0.364 | 0.14 | 0.0795 | 0.0731 | 0.142 | 0.214
NCI-H2170 | 0.694 | 0.72 | 0.684 | 0.739 | 0.756 | 0.631 | 0.586 | 0.659 | 0.508 | 0.741 | – | 0.904 | 0.63 | 0.379 | 0.364 | 0.354 | 0.14 | 0.157 | – | –
HCC-78 | 0.385 | 0.395 | 0.399 | 0.329 | 0.381 | 0.552 | 0.313 | 0.345 | 0.587 | 0.401 | 0.806 | 0.484 | 0.407 | 0.428 | 0.639 | 0.486 | 0.376 | 0.287 | 0.676 | 0.45
NCI-H1395 | 0.668 | 0.72 | 0.675 | 0.58 | 0.77 | 0.379 | 0.406 | 0.613 | 0.368 | 0.485 | 0.98 | 0.476 | 0.305 | 0.261 | 0.462 | 0.382 | 0.301 | 0.241 | 0.77 | 0.292
NCI-H2228 | 0.794 | 0.687 | 0.533 | 0.502 | 0.56 | 0.592 | 0.596 | 0.375 | 0.549 | 0.526 | 0.332 | 0.169 | 0.0671 | 0.0687 | 0.254 | 0.11 | 0.0655 | 0.0891 | 0.089 | 0.166
H3255 | 0.523 | 0.622 | 0.474 | 0.576 | 0.593 | 0.407 | 0.319 | 0.487 | 0.389 | 0.399 | 0.48 | 0.236 | 0.197 | 0.141 | 0.326 | 0.249 | 0.181 | 0.14 | 0.321 | 0.28
HCC-15 | 0.77 | 0.716 | 0.526 | 0.634 | 0.667 | 0.674 | 0.614 | 0.544 | 0.573 | 0.656 | 0.305 | 0.192 | 0.192 | 0.165 | 0.344 | 0.19 | 0.112 | 0.0964 | – | –
